The target in this test is T1, IC-GPCR2 (Homo sapiens, UniProt Q8TDV5).
T1 construct: expressed in transfected cells
T1 sequence (Q8TDV5 1-335 S309L): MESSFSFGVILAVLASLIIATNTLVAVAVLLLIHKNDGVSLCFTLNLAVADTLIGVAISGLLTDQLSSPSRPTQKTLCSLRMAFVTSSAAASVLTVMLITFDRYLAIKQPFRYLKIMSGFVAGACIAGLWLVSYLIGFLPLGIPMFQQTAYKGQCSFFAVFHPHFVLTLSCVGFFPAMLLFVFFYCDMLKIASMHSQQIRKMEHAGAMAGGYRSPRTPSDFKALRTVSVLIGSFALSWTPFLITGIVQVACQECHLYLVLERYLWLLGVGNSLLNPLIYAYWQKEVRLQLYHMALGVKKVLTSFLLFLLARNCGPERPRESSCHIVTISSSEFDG
Nature of the test: Stimulation of cAMP in CHO cell line stably expressing IC-GPCR2 (HTRF cAMP dynamic kit). The test is classed as cell-based. The note with it: 3 μM compound; relative to maximal activity of 5-Ethyl-2-{4-[4-(4-tetrazol-1-yl-phenoxymethyl)-thiazol-2-yl]-piperidin-1-yl}-pyrimidine (=100%); IC-GPCR2 stably expressing CHO cells, 30 minutes. The protocol:
This assay was developed using a stable cell line expressing IC-GPCR-2, generated as follows. IC-GPCR2 (Seq. ID No. 1) was cloned into Gateway pDEST 40vector (Invitrogen), using the Gateway cloning system (invitrogen) according to the manufacturers instructions. A stable cell line was generated by transfecting a 10 cm plate of CHO cells (source) with 8 ug of this construct using Transit-CHO transfection kit (Mirus). CHO cells were plated the day prior to transfection at a density of 3,000,000 cells/plate. Clones were selected using the antibiotic G418 at 500 ug/ml. 23 clones were picked and assayed for the expression of the receptor by measuring changes in intracellular cAMP levels in response to an IC-GPCR2 agonist (Arena 51).
To measure cAMP activity in response to IC-GPCR2 agonist, the clones were plated in 96 well plates at 17500 cells per well. On the day after plating, cells were incubated with the IC-CPCR2 agonist at […] for 30 minutes in Ham's F12 Media (Gibco) with 0.04% DMSO. cAMP was measured using the cAMP dynamic kit from C is Bio (Bedford, Mass.) according to the manufacturers instructions. Briefly, cells were lysed, and cAMP levels determined by competitive immunoassay using D2 labeled cAMP, and europium cryptate tagged anti cAMP antibody. When in close proximity, the D2 and europium cryptate undergo fluorescence resonance energy transfer (FRET), which is measured as a fluorescence ratio (665 nm/620 nm). Unlabelled cAMP in the cell lysatc competed with the D2 labeled cAMP for the europium crypate labeled antibody. The resulting decrease in FRET signal corresponded to intracellular cAMP levels. Fluorescence was read on a BMG Labtech PHERAstar, software version 1.50.
The clone with the greatest response to IC-GPCR2 agonist was selected for the screening assay.
Compounds were dissolved in 100% DMSO to a concentration of […] to provide stock solutions. To determine activity against IC-GPCR2, compounds were incubated with IC-GPCR2 stably expressing cells (described above), at 6-8 concentrations ranging from 0.00003 to 10 micromolar, in 96 well plates, in 50 ul of Hams F12 media for 30 minutes. Cells were plated at 17500 cells per well 1 day before running the assay. All compounds were also screened against the parental CHO cells. cAMP was measured using the cAMP dynamic kit from Cis Bio (Bedford, Mass.), according to the manufacturer's instructions. Briefly, cells were lysed and cAMP levels determined by competitive immunoassay using D2 labeled cAMP, and europium cryptate tagged anti cAMP antibody. When in close proximity, the D2 and europium cryptate undergo fluorescence resonance energy transfer (FRET), which is measured as a fluorescence ratio (665 nm/620 nm). Unlabelled cAMP in the cell lysate competed with the D2 labeled cAMP for the europium crypate labeled antibody. The resulting decrease in FRET signal corresponded to intracellular cAMP levels
To determine percent activity for a tested compound, the FRET signal value obtained at a particular concentration are compared to the Maximal FRET signal value obtained for 5-Ethyl-2-{4-[4-(4-tetrazol-1-yl-phenoxymethyl)-thiazol-2-yl]-piperidin-1-yl}-pyrimidine. The maximal activity of 5-Ethyl-2-{4-[4-(4-tetrazol-1-yl-phenoxymethyl)-thiazol-2-yl]-piperidin-1-yl}-pyrimidine is designated as 100% activity. Typically, the concentration of 5-Ethyl-2-{4-[4-(4-tetrazol-1-yl-phenoxymethyl)-thiazol-2-yl]-piperidin-1-yl}-pyrimidine in the assay was approximately 0.1 μM. The synthesis of 5-Ethyl-2-{4-[4-(4-tetrazol-1-yl-phenoxymethyl)-thiazol-2-yl]-piperidin-1-yl}-pyrimidine is disclosed in co-owned pending U.S. patent application Ser. No. 11/964,461, herein incorporated by reference. Activities of compounds that were tested are shown in Table 1 below and are expressed as % activity at 3 μM compound compared to the maximal activity of 5-Ethyl-2-{4-[4-(4-tetrazol-1-yl-phenoxymethyl)-thiazol-2-yl]-piperidin-1-yl}-pyrimidine at 3 μM.
(In general: Time-resolved FRET reads energy transfer from a long-lived donor to a nearby acceptor.)

Where a name gives a salt, the structure may show the parent alone.

Consider `O=S(=O)(Cc1ccccc1)N1CCC(n2ncc(COc3ccc(-n4cnnn4)nc3)n2)CC1` [Example 47, 5-((2-(1-(Benzylsulfonyl)piperidin-4-yl)-2H-1,2,3-triazol-4-yl)methoxy)-2-(1H-tetrazol-1-yl)pyridine], for which the “% activity at 3 μM” value stood at 74.90%.
The value for `CCc1cnc(N2CCC(n3ncc(COc4ccc(-n5cnnn5)nc4)n3)C(C)C2)nc1` (stereo not drawn) [Example 85, 2-(4-(4-((6-(1H-Tetrazol-1-yl)pyridin-3-yloxy)methyl)-2H-1,2,3-triazol-2-yl)-3-methylpiperidin-1-yl)-5-ethylpyrimidine] was 76.12%.
The value for `CC1CN(C(=O)OC(C)(C)C)CCC1n1ncc(COc2ccc(-n3cnnn3)nc2)n1` (stereo not drawn) [Example 83, tert-Butyl 4-(4-((6-(1H-tetrazol-1-yl)pyridin-3-yloxy)methyl)-2H-1,2,3-triazol-2-yl)-3-methylpiperidine-1-carboxylate] was 63.14%; that for `CC(C)COC(=O)N1CCC(n2ncc(COc3ccc(-n4cnnn4)cc3F)n2)CC1` [Example 101, Isobutyl 4-(4-((2-fluoro-4-(1H-tetrazol-1-yl)phenoxy)methyl)-2H-1,2,3-triazol-2-yl)piperidine-1-carboxylate] was 50.67%.
The value for `CS(=O)(=O)c1ccc(OCc2cnn(C3CCN(c4ncc(Cl)cn4)CC3)n2)c(F)c1` [Example 13, 5-Chloro-2-{4-[4-(2-fluoro-4-methanesulfonyl-phenoxymethyl)-[1,2,3]triazol-2-yl]-piperidin-1-yl}-pyrimidine] was 61.30%; that for `C=CCOC(=O)N1CCC(n2ncc(COc3ccc(-n4cnnn4)cc3F)n2)CC1` [Example 76, Allyl 4-(4-((2-fluoro-4-(1H-tetrazol-1-yl)phenoxy)methyl)-2H-1,2,3-triazol-2-yl)piperidine-1-carboxylate] was 56.39%.
Turning to `CCc1cnc(N2CCC(n3ncc(COc4ccc(-n5cncn5)nc4C)n3)CC2)nc1` [Example 65, 5-Ethyl-2-(4-(4-((2-methyl-6-(1H-1,2,4-triazol-1-yl)pyridin-3-yloxy)methyl)-2H-1,2,3-triazol-2-yl)piperidin-1-yl)pyrimidine], the “% activity at 3 μM” value came to 70.03%.
In the case of `CCc1cnc(N2CC[C@H](n3ncc(COc4ccc(-n5cnnn5)cc4F)n3)[C@@H](F)C2)nc1` (racemic) [Example 38, 5-Ethyl-2-((trans)-3-fluoro-4-(4-((2-fluoro-4-(1H-tetrazol-1-yl)phenoxy)methyl)-2H-1,2,3-triazol-2-yl)piperidin-1-yl)pyrimidine], the “% activity at 3 μM” value is given as 85.32%.
The value for `Fc1cnc(N2CCC(n3ncc(COc4ccc(-n5cnnn5)nc4)n3)CC2)nc1` [Example 31, 2-(4-(4-((6-(1H-tetrazol-1-yl)pyridin-3-yloxy)methyl)-2H-1,2,3-triazol-2-yl)piperidin-1-yl)-5-fluoropyrimidine] was 59.95%.
Under `CCc1cnc(N2CCC(n3cnc(COc4ccc(S(C)(=O)=O)cc4F)n3)CC2)nc1` [Example 9, 5-Ethyl-2-{4-[3-(2-fluoro-4-methanesulfonyl-phenoxymethyl)-[1,2,4]triazol-1-yl]-piperidin-1-yl}-pyrimidine] stands 65.75%; under `CC(C)(C)OC(=O)N1CCC(n2nnc(COc3ccc(S(C)(=O)=O)cc3F)n2)CC1` [Example 5, 4-[5-(2-Fluoro-4-methanesulfonyl-phenoxymethyl)-tetrazol-2-yl]-piperidine-1-carboxylic acid tert-butyl ester], 75.78%; under `C[C@H](N)C(=O)N1CCC(n2ncc(COc3ccc(-n4cnnn4)nc3)n2)CC1` [Example 55, (S)-1-(4-(4-((6-(1H-tetrazol-1-yl)pyridin-3-yloxy)methyl)-2H-1,2,3-triazol-2-yl)piperidin-1-yl)-2-aminopropan-1-one hydrochloride], 31.89%.
Regarding `c1cc(-n2cnnn2)ncc1OCc1cnn(C2CCN(c3nc(C4CC4)no3)CC2)n1` [Example 29, 5-{2-[1-(3-Cyclopropyl-[1,2,4]oxadiazol-5-yl)-piperidin-4-yl]-2H-[1,2,3]triazol-4-ylmethoxy}-2-tetrazol-1-yl-pyridine], the “% activity at 3 μM” value is on record as 48.76%.
Under `CCc1cnc(N2CCC(n3cc(COc4ccc(-n5cnnn5)cc4F)cn3)CC2)nc1` [Example 19, 5-Ethyl-2-(4-(4-((2-fluoro-4-(1H-tetrazol-1-yl)phenoxy)methyl)-1H-pyrazol-1-yl)piperidin-1-yl)pyrimidine] stands 80.10%.
As to `Clc1cnc(N2CCC(n3ncc(COc4ccc(Cl)nc4)n3)CC2)nc1` [Example 98, 5-Chloro-2-{4-[4-(6-chloro-pyridin-3-yloxymethyl)-[1,2,3]triazol-2-yl]-piperidin-1-yl}-pyrimidine], the “% activity at 3 μM” value is on record as 17.16%.
Under `O=C(CC1CCNCC1)N1CCC(n2ncc(COc3ccc(-n4cnnn4)nc3)n2)CC1` [Example 51, 1-(4-(4-((6-(1H-Tetrazol-1-yl)pyridin-3-yloxy)methyl)-2H-1,2,3-triazol-2-yl)piperidin-1-yl)-2-(piperidin-4-yl)ethanone hydrochloride] stands 57.93%.
For the compound `CS(=O)(=O)c1ccc(OCc2cnn(C3CCN(C(=O)OCc4ccccc4)CC3)n2)c(F)c1` [Example 104, Benzyl 4-(4-((2-fluoro-4-(methylsulfonyl)phenoxy)methyl)-2H-1,2,3-triazol-2-yl)piperidine-1-carboxylate], the “% activity at 3 μM” value turned out to be 28.40%.
The value for `CC(C)(C)OC(=O)N1CCC(n2ccc(COc3ccc(-n4cnnn4)cc3F)n2)CC1` [Example 6, 4-[3-(2-Fluoro-4-tetrazol-1-yl-phenoxymethyl)-pyrazol-1-yl]-piperidine-1-carboxylic acid tert-butyl ester] was 79.51%.
The value for `Cc1nc(-n2cncn2)ccc1OCc1cnn(C2CCN(c3ncc(C(F)(F)F)cn3)CC2)n1` [Example 64, 2-(4-(4-((2-Methyl-6-(1H-1,2,4-triazol-1-yl)pyridin-3-yloxy)methyl)-2H-1,2,3-triazol-2-yl)piperidin-1-yl)-5-(trifluoromethyl)pyrimidine] was 66.18%.
Under `CS(=O)(=O)c1ccc(OCc2cnn(C3CCN(c4ncc(F)cn4)CC3)n2)c(F)c1` [Example 107, 5-Fluoro-2-(4-(4-((2-fluoro-4-(methylsulfonyl)phenoxy)methyl)-2H-1,2,3-triazol-2-yl)piperidin-1-yl)pyrimidine] stands 36.83%; under `CC1CN(c2ncc(Cl)cn2)CCC1n1ncc(COc2ccc(-n3cnnn3)nc2)n1` (stereo not drawn) [Example 87, 2-(4-(4-((6-(1H-Tetrazol-1-yl)pyridin-3-yloxy)methyl)-2H-1,2,3-triazol-2-yl)-3-methylpiperidin-1-yl)-5-chloropyrimidine], 75.63%.

The values are drawn from patent US8846675B2, “N-linked heterocyclic receptor agonists for the treatment of diabetes and metabolic disorders” (Cymabay Therapeutics, Inc., priority 2007, dated 2014).
